Patent US10508104B2, “6-hydroxy-5-(phenyl/heteroarylsulfonyl)pyrimidin-4(1H)-one as APJ agonists” (Bristol-Myers Squibb Company, priority 2016, dated 2019)

target: human APJ receptor (Homo sapiens (Human), UniProt P35414); experiment: Intracellular cAMP accumulation assay (APJ hcAMP, HTRF); format: cell-based; conditions: HEK293 cells stably expressing human APJ receptor; inhibition of forskolin-mediated cAMP production; read-out: Human APJ cAMP EC50 Potency range
In short: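 HEK293 cells stably expressing human APJ, 5,000 per well, incubated 30 min at rt with compound, […] and 2 μM forskolin. cAMP measured by HTRF against a cAMP standard curve as inhibition of forskolin-driven production. EC50 from variable-slope sigmoidal fit.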

Sequence of human APJ receptor (P35414 whole entry): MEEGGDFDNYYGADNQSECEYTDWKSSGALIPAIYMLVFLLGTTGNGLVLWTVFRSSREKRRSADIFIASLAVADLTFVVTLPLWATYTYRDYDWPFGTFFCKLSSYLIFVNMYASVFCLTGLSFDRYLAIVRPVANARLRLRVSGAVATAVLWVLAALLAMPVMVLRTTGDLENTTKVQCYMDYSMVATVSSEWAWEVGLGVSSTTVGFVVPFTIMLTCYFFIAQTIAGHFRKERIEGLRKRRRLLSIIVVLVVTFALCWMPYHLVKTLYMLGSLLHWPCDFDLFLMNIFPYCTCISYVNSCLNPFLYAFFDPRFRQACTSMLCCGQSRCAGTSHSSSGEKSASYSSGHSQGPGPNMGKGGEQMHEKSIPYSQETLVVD

| EC50 [nM] | Structure (SMILES) |
| --- | --- |
| 0.01 to 10 | CCCCc1nc(=O)c(S(=O)(=O)c2ccc(-n3cc(Cl)ccc3=O)cc2)c(O)n1-c1c(OC)cccc1OC [Example 71, 2-Butyl-5-((4-(5-chloro-2-oxopyridin-1 (2H)-yl)phenyl)sulfonyl)-1-(2,6-dimethoxyphenyl)-6-hydroxypyrimidin-4(1H)-one] |
| 0.01 to 10 | CCCCc1nc(=O)c(S(=O)(=O)c2ccc(-c3nccn3C)cc2)c(O)n1-c1c(OC)cccc1OC [Example 79, 2-Butyl-1-(2,6-dimethoxyphenyl)-6-hydroxy-5-((4-(1-methyl-1H-imidazol-2-yl)phenyl)sulfonyl)pyrimidin-4(1H)-one] |
| 0.01 to 10 | CCCCc1nc(=O)c(S(=O)(=O)c2ccc(C3CC3)cc2)c(O)n1-c1c(OC)cccc1OC [Example 85, 2-Butyl-5-((4-cyclopropylphenyl)sulfonyl)-1-(2,6-dimethoxyphenyl)-6-hydroxypyrimidin-4(1H)-one] |
| 0.01 to 10 | CCCCc1nc(=O)c(S(=O)(=O)c2ccc(C(=O)O)cc2)c(O)n1-c1c(OC)cccc1OC [Example 89, 4-((2-Butyl-1-(2,6-dimethoxyphenyl)-6-hydroxy-4-oxo-1,4-dihydropyrimidin-5-yl)sulfonyl)benzoic Acid] |
| 0.01 to 10 | CCCCc1nc(=O)c(S(=O)(=O)c2ccc(C(=O)NCC(F)(F)F)cc2)c(O)n1-c1c(OC)cccc1OC [Example 90, 4-((2-Butyl-1-(2,6-dimethoxyphenyl)-6-hydroxy-4-oxo-1,4-dihydropyrimidin-5-yl)sulfonyl)-N-(2,2,2-trifluoroethyl)benzamide] |

same assay, conditions: human APJ, intracellular cAMP accumulation; read-out: Human APJ cAMP EC50 Potency range

| Structure (SMILES) | EC50 [nM] |
| --- | --- |
| CCCCc1nc(=O)c(S(=O)(=O)c2ccc(-c3ccnc(NC(=O)C4CC4)c3)cc2)c(O)n1-c1c(CC)cccc1CC [Example 65, N-[4-(4-{[2-butyl-1-(2,6-diethylphenyl)-6-hydroxy-4-oxo-1,4-dihydropyrimidin-5-yl]sulfonyl}phenyl)pyri-din-2-yl]cyclopropane-carboxamide] | 0.01 to 10 |
| CCCCc1nc(=O)c(S(=O)(=O)c2ccc(-c3c(C)nnn3C)cc2)c(O)n1-c1c(OC)cccc1OC [Example 82, 2-butyl-1-(2,6-dimethoxyphenyl)-5-[4-(dimethyl-1H-1,2,3-triazol-5-yl)benzenesulfonyl]-6-hydroxy-1,4-dihydropyrimidin-4-one] | 0.01 to 10 |
| CCCCc1nc(=O)c(S(=O)(=O)c2ccc(-c3nc(C(=O)OCC)co3)cc2)c(O)n1-c1c(OC)cccc1OC [Example 83, ethyl 2-(4-{[2-butyl-1-(2,6-dimethoxyphenyl)-6-hydroxy-4-oxo-1,4-dihydropyrimidin-5-yl]sulfonyl}phenyl)-1,3-oxazole-4-carboxylate] | 0.01 to 10 |
| CCCCc1nc(=O)c(S(=O)(=O)c2ccc(-c3nc(C(=O)OC)c(C)s3)cc2)c(O)n1-c1c(OC)cccc1OC [Example 84, methyl 2-(4-{[2-butyl-1-(2,6-dimethoxyphenyl)-6-hydroxy-4-oxo-1,4-dihydropyrimidin-5-yl]sulfonyl}phenyl)-5-methyl-1,3-thiazole-4-carboxylate] | 0.01 to 10 |
| COc1cccc(OC)c1-n1c(C2CCCC2)nc(=O)c(S(=O)(=O)c2ccc(C3CC3)cc2)c1O [Example 86, 2-cyclopentyl-5-(4-cyclopropylbenzene-sulfonyl)-1-(2,6-dimethoxyphenyl)-6-hydroxy-1,4-dihydropyrimidin-4-one] | 0.01 to 10 |
| CCCCc1nc(=O)c(S(=O)(=O)c2ccc(C3CC3)cc2)c(O)n1-c1c(CC)cccc1CC [Example 87, 2-butyl-5-(4-cyclopropylbenzene-sulfonyl)-1-(2,6-diethylphenyl)-6-hydroxy-1,4-dihydropyrimidin-4-one] | 0.01 to 10 |
| CCOCc1nc(=O)c(S(=O)(=O)c2ccc(C3CC3)cc2)c(O)n1-c1c(CC)cccc1CC [Example 88, 5-(4-cyclopropylbenzene-sulfonyl)-1-(2,6-diethylphenyl)-2-(ethoxymethyl)-6-hydroxy-1,4-dihydropyrimidin-4-one] | 0.01 to 10 |
| CCCCc1nc(=O)c(S(=O)(=O)c2ccc(C(=O)NC3CC3)cc2)c(O)n1-c1c(OC)cccc1OC [Example 91, 4-{[2-butyl-1-(2,6-dimethoxyphenyl)-6-hydroxy-4-oxo-1,4-dihydropyrimidin-5-yl]suffonyl}-N-cyclopropylbenzamide] | 0.01 to 10 |
| CCCCc1nc(=O)c(S(=O)(=O)c2ccc(C(=O)NC)cc2)c(O)n1-c1c(OC)cccc1OC [Example 92, 4-{[2-butyl-1-(2,6-dimethoxyphenyl)-6-hydroxy-4-oxo-1,4-dihydropyrimidin-5-yl]sulfonyl}-N-methylbenzamide] | 0.01 to 10 |

Continued, values first:

| EC50 [nM] | Structure (SMILES) |
| --- | --- |
| 0.01 to 10 | COc1cccc(OC)c1-n1c(C2CCCC2)nc(=O)c(S(=O)(=O)c2ccc(C)cc2)c1O [Example 63, 2-cyclopentyl-1-(2,6-dimethoxyphenyl)-6-hydroxy-5-(4-methylbenzenesulfonyl)-1,4-dihydropyrimidin-4-one] |
| 0.01 to 10 | COc1cccc(OC)c1-n1c(C2CCCC2)nc(=O)c(S(=O)(=O)c2ccc(-c3ccnc(NC(=O)C4CC4)c3)cc2)c1O [Example 64, N-[4-(4-{[2-cyclopentyl-1-(2,6-dimethoxyphenyl)-6-hydroxy-4-oxo-1,4-dihydropyrimidin-5-yl]sulfonyl}phenyl)pyri-din-2-yl]cyclopropane-carboxamide] |
| 0.01 to 10 | CCCCc1nc(=O)c(S(=O)(=O)c2ccc(C)cc2)c(O)n1-c1c(CC)cccc1CC [Example 66, 2-butyl-1-(2,6-diethylphenyl)-6-hydroxy-5-(4-methylbenzenesulfonyl)-1,4-dihydropyrimidin-4-one] |
| 0.01 to 10 | CCOCc1nc(=O)c(S(=O)(=O)c2ccc(C)cc2)c(O)n1-c1c(CC)cccc1CC [Example 67, 1-(2,6-diethylphenyl)-2-(ethoxymethyl)-6-hydroxy-5-(4-methylbenzenesulfonyl)-1,4-dihydropyrimidin-4-one] |
| 0.01 to 10 | CCCCc1nc(=O)c(S(=O)(=O)c2ccc(-c3ccc(F)cc3)c(F)c2)c(O)n1-c1c(OC)cccc1OC [Example 68, 2-butyl-1-(2,6-dimethoxyphenyl)-5-[3-fluoro-4-(4-fluorophenyl)benzene-sulfonyl]-6-hydroxy-1,4-dihydropyrimidin-4-one] |
| 0.01 to 10 | CCCCc1nc(=O)c(S(=O)(=O)c2ccc(-c3ccnc(F)c3C)c(F)c2)c(O)n1-c1c(OC)cccc1OC [Example 69, 2-butyl-1-(2,6-dimethoxyphenyl)-5-[3-fluoro-4-(2-fluoro-3-methylpyridin-4-yl)benzenesulfonyl]-6-hydroxy-1,4-dihydropyrimidin-4-one] |
| 0.01 to 10 | CCCCc1nc(=O)c(S(=O)(=O)c2ccc(-c3ccc(F)nc3)c(F)c2)c(O)n1-c1c(OC)cccc1OC [Example 70, 2-butyl-1-(2,6-dimethoxyphenyl)-5-[3-fluoro-4-(6-fluoropyridin-3-yl)benzenesulfonyl]-6-hydroxy-1,4-dihydropyrimidin-4-one] |
| 0.01 to 10 | CCCCc1nc(=O)c(S(=O)(=O)c2ccc(-n3ccccc3=O)cc2)c(O)n1-c1c(OC)cccc1OC [Example 72, 2-butyl-1-(2,6-dimethoxyphenyl)-6-hydroxy-5-[4-(2-oxo-1,2-dihydropyridin-1-yl)benzenesulfonyl]-1,4-dihydropyrimidin-4-one] |
| 0.01 to 10 | COc1cccc(OC)c1-n1c(CCC(C)C)nc(=O)c(S(=O)(=O)c2ccc(-n3ccccc3=O)cc2)c1O [Example 73, 1-(2,6-dimethoxyphenyl)-6-hydroxy-2-(3-methylbutyl)-5-[4-(2-oxo-1,2-dihydropyridin-1-yl)benzenesulfonyl]-1,4-dihydropyrimidin-4-one] |
| 0.01 to 10 | CCCCc1nc(=O)c(S(=O)(=O)c2ccc(-n3ccc(C)cc3=O)cc2)c(O)n1-c1c(OC)cccc1OC [Example 74, 2-butyl-1-(2,6-dimethoxyphenyl)-6-hydroxy-5-[4-(4-methyl-2-oxo-1,2-dihydropyridin-1-yl)benzenesulfonyl]-1,4-dihydropyrimidin-4-one] |
| 0.01 to 10 | CCCCc1nc(=O)c(S(=O)(=O)c2ccc(-n3cc(F)ccc3=O)cc2)c(O)n1-c1c(OC)cccc1OC [Example 75, 2-butyl-1-(2,6-dimethoxyphenyl)-5-[4-(5-fluoro-2-oxo-1,2-dihydropyridin-1-yl)benzenesulfonyl]-6-hydroxy-1,4-dihydropyrimidin-4-one] |
| 0.01 to 10 | CCCCc1nc(=O)c(S(=O)(=O)c2ccc(-n3cc(C)ccc3=O)cc2)c(O)n1-c1c(OC)cccc1OC [Example 76, 2-butyl-1-(2,6-dimethoxyphenyl)-6-hydroxy-5-[4-(5-methyl-2-oxo-1,2-dihydropyridin-1-yl)benzenesulfonyl]-1,4-dihydropyrimidin-4-one] |
| 0.01 to 10 | CCCCc1nc(=O)c(S(=O)(=O)c2ccc(-n3cc(Cl)ccc3=O)cc2)c(O)n1-c1c(CC)cccc1CC [Example 77, 2-butyl-5-[4-(5-chloro-2-oxo-1,2-dihydropyridin-1-yl)benzenesulfonyl]-1-(2,6-diethylphenyl)-6-hydroxy-1,4-dihydropyrimidin-4-one] |
| 0.01 to 10 | CCCCc1nc(=O)c(S(=O)(=O)c2ccc(-n3cc(C)ccc3=O)cc2)c(O)n1-c1c(CC)cccc1CC [Example 78, 2-butyl-1-(2,6-diethylphenyl)-6-hydroxy-5-[4-(5-methyl-2-oxo-1,2-dihydropyridin-1-yl)benzenesulfonyl]-1,4-dihydropyrimidin-4-one] |
| 0.01 to 10 | CCCCc1nc(=O)c(S(=O)(=O)c2ccc(-c3ncn(C)n3)cc2)c(O)n1-c1c(OC)cccc1OC [Example 80, 2-butyl-1-(2,6-dimethoxyphenyl)-6-hydroxy-5-[4-(1-methyl-1H-1,2,4-triazol-3-yl)benzenesulfonyl]-1,4-dihydropyrimidin-4-one] |
| 0.01 to 10 | CCCCc1nc(=O)c(S(=O)(=O)c2ccc(-c3cccs3)cc2)c(O)n1-c1c(OC)cccc1OC [Example 81, 2-butyl-1-(2,6-dimethoxyphenyl)-6-hydroxy-5-[4-(thiophen-2-yl)benzenesulfonyl]-1,4-dihydropyrimidin-4-one] |
